# Results as given in ChEMBL document CHEMBL1208670, “Synthesis, characterization and antimicrobial studies of 2-(4-methoxy-phenyl)-5-methyl-4-(2-arylsulfanyl-ethyl)-2,4-dihydro-[1,2,4] triazolo-3-ones and their corresponding sulfones” (2010).
# Legend:
# Format in all cases: functional
# [1] = tested on: Aspergillus flavus; experiment: Antifungal activity against Aspergillus flavus by twofold serial dilution method
# [2] = tested on: Bacillus subtilis; experiment: Antibacterial activity against Bacillus subtilis by twofold serial dilution method
# [3] = tested on: Pseudomonas aeruginosa; experiment: Antibacterial activity against Pseudomonas aeruginosa by twofold serial dilution method
# [4] = tested on: Rhizopus arrhizus; experiment: Antifungal activity against Rhizopus oryzae by twofold serial dilution method
# [5] = tested on: Aspergillus niger; experiment: Antifungal activity against Aspergillus niger by twofold serial dilution method
# [6] = tested on: Saccharomyces cerevisiae; experiment: Antifungal activity against Saccharomyces cerevisiae by twofold serial dilution method
# [7] = tested on: Candida albicans; experiment: Antifungal activity against Candida albicans by twofold serial dilution method
# [8] = tested on: Staphylococcus epidermidis; experiment: Antibacterial activity against Staphylococcus epidermidis by twofold serial dilution method
# [9] = tested on: Staphylococcus aureus; experiment: Antibacterial activity against Staphylococcus aureus by twofold serial dilution method
# [10] = tested on: Escherichia coli; experiment: Antibacterial activity against Escherichia coli by twofold serial dilution method
MIC [1],MIC [2],MIC [3],MIC [4],MIC [5],MIC [6],MIC [7],MIC [8],MIC [9],MIC [10],SMILES
150 µg/mL,150 µg/mL,75 µg/mL,150 µg/mL,150 µg/mL,150 µg/mL,150 µg/mL,75 µg/mL,75 µg/mL,150 µg/mL,COc1ccc(-n2nc(C)n(CCSc3ccc(F)cc3)c2=O)cc1
150 µg/mL,150 µg/mL,75 µg/mL,18.8 µg/mL,150 µg/mL,150 µg/mL,150 µg/mL,150 µg/mL,9.75 µg/mL,9.75 µg/mL,COc1ccc(-n2nc(C)n(CCSc3cccc(C(F)(F)F)c3)c2=O)cc1
75 µg/mL,75 µg/mL,75 µg/mL,75 µg/mL,75 µg/mL,150 µg/mL,150 µg/mL,150 µg/mL,150 µg/mL,150 µg/mL,COc1ccc(-n2nc(C)n(CCSc3ccc(Br)cc3)c2=O)cc1
75 µg/mL,18.8 µg/mL,75 µg/mL,37.5 µg/mL,37.5 µg/mL,150 µg/mL,150 µg/mL,150 µg/mL,75 µg/mL,18.8 µg/mL,COc1ccc(-n2nc(C)n(CCSc3cccc(OC)c3)c2=O)cc1
75 µg/mL,75 µg/mL,150 µg/mL,37.5 µg/mL,37.5 µg/mL,150 µg/mL,150 µg/mL,75 µg/mL,75 µg/mL,150 µg/mL,COc1ccc(-n2nc(C)n(CCSc3ccc(N)cc3)c2=O)cc1
75 µg/mL,75 µg/mL,75 µg/mL,75 µg/mL,37.5 µg/mL,150 µg/mL,150 µg/mL,37.5 µg/mL,75 µg/mL,37.5 µg/mL,COc1ccc(-n2nc(C)n(CCSc3ccccc3)c2=O)cc1
150 µg/mL,150 µg/mL,150 µg/mL,150 µg/mL,150 µg/mL,150 µg/mL,150 µg/mL,150 µg/mL,75 µg/mL,150 µg/mL,COc1ccc(-n2nc(C)n(CCSc3nnc(-c4ccc(Cl)cc4)o3)c2=O)cc1
75 µg/mL,150 µg/mL,37.5 µg/mL,18.8 µg/mL,37.5 µg/mL,150 µg/mL,150 µg/mL,75 µg/mL,37.5 µg/mL,150 µg/mL,COc1ccc(-n2nc(C)n(CCS(=O)(=O)c3ccccc3F)c2=O)cc1
75 µg/mL,75 µg/mL,150 µg/mL,37.5 µg/mL,37.5 µg/mL,150 µg/mL,150 µg/mL,37.5 µg/mL,18.8 µg/mL,9.38 µg/mL,COc1ccc(-n2nc(C)n(CCS(=O)(=O)c3cccc(F)c3)c2=O)cc1
75 µg/mL,75 µg/mL,75 µg/mL,75 µg/mL,37.5 µg/mL,150 µg/mL,150 µg/mL,37.5 µg/mL,75 µg/mL,37.5 µg/mL,COc1ccc(-n2nc(C)n(CCS(=O)(=O)c3ccc(F)cc3)c2=O)cc1
75 µg/mL,37.5 µg/mL,18.8 µg/mL,75 µg/mL,37.5 µg/mL,150 µg/mL,150 µg/mL,75 µg/mL,18.8 µg/mL,37.5 µg/mL,COc1ccc(-n2nc(C)n(CCS(=O)(=O)c3cccc(C(F)(F)F)c3)c2=O)cc1
75 µg/mL,75 µg/mL,150 µg/mL,37.5 µg/mL,37.5 µg/mL,150 µg/mL,150 µg/mL,150 µg/mL,9.38 µg/mL,150 µg/mL,COc1ccc(-n2nc(C)n(CCS(=O)(=O)c3ccc(Br)cc3)c2=O)cc1
150 µg/mL,150 µg/mL,75 µg/mL,150 µg/mL,150 µg/mL,150 µg/mL,150 µg/mL,75 µg/mL,37.5 µg/mL,150 µg/mL,COc1ccc(-n2nc(C)n(CCS(=O)(=O)c3ccccc3)c2=O)cc1
150 µg/mL,37.5 µg/mL,37.5 µg/mL,9.75 µg/mL,150 µg/mL,150 µg/mL,37.5 µg/mL,150 µg/mL,9.75 µg/mL,75 µg/mL,COc1ccc(-n2nc(C)n(CCSc3ccccc3F)c2=O)cc1
150 µg/mL,150 µg/mL,37.5 µg/mL,37.5 µg/mL,150 µg/mL,150 µg/mL,150 µg/mL,75 µg/mL,37.5 µg/mL,150 µg/mL,COc1ccc(-n2nc(C)n(CCSc3cccc(F)c3)c2=O)cc1
–,1.53 µg/mL,12.5 µg/mL,–,–,–,–,3.12 µg/mL,6.25 µg/mL,7.81 µg/mL,CC1(C)S[C@@H]2[C@H](NC(=O)Cc3ccccc3)C(=O)N2[C@H]1C(=O)O [PENICILLIN G]

SMILES,MIC [1],MIC [2],MIC [3],MIC [4],MIC [5],MIC [6],MIC [7],MIC [8],MIC [9],MIC [10]
C[C@@H]1[C@H](O)[C@@H](C)/C=C/C=C/C=C/C=C/C=C/C=C/C=C/[C@H](O[C@@H]2O[C@H](C)[C@@H](O)[C@H](N)[C@@H]2O)C[C@@H]2O[C@](O)(C[C@@H](O)C[C@@H](O)[C@H](O)CC[C@@H](O)C[C@@H](O)CC(=O)O[C@H]1C)C[C@H](O)[C@H]2C(=O)O [AMPHOTERICIN B],6.25 µg/mL,–,–,1.56 µg/mL,1.56 µg/mL,6.25 µg/mL,6.25 µg/mL,–,–,–
CN[C@@H]1[C@H](O[C@H]2[C@H](O[C@H]3[C@H](O)[C@@H](O)[C@H](N=C(N)N)[C@@H](O)[C@@H]3N=C(N)N)O[C@@H](C)[C@]2(O)C=O)O[C@@H](CO)[C@H](O)[C@H]1O [STREPTOMYCIN],–,6.25 µg/mL,3.12 µg/mL,–,–,–,–,1.56 µg/mL,1.56 µg/mL,3.12 µg/mL
